Patent US6887862B2, “Method for improving treatment selectivity and efficacy using intravascular photodynamic therapy” (Miravant Systems, Inc., priority 2001, dated 2005)
“Also recorded” adds a separate entry of the source.

How the values were obtained:
rat carotid artery = experiment: Intravascular PDT treatment of rat carotid artery, histology (H&E) and clinical observation; type: in vivo; settings: for Acellularity in the medial wall / PDT effect / damage in surrounding tissue: balloon blood exclusion; for Adverse symptoms in animals / PDT-induced damage in surrounding tissue (histology) / Acellularity within the media (H&E): blue light approximately 458 nm
From the text: The central lumen of this catheter was designed to allow passage of an optical fiber having a diffuser at its distal end. The fiber was positioned such that the diffusing section was centered within the light delivery balloon, thereby providing intravascular light delivery with minimal absorption by blood. Excitation was typically provided by a laser source at the proximal end of the device, which was focused on the proximal end of the fiber-optic diffuser. Typical wavelengths used were 405 nm, 407 nm, 413 nm, 436 nm, 442 nm, 458 nm, 514 nm, 532 nm, and the general range of 570-610 nm.
The surgery was performed by doing a cutdown to allow access to the right femoral artery, followed by insertion of the light delivery catheter. The catheter was then passed up through the iliac and abdominal aorta, through the aortic arch and into the left carotid artery. Once in place, the balloon was inflated to approximately 1 atmosphere using a standard angioplasty inflation device. This caused the balloon to expand to the diameter of the artery, while still allowing the pressure to be kept low enough to prevent significant over-stretch of the artery.
Prior to this surgery, the rats were injected with a photosensitizer drug to allow uptake of the drug into the target tissues. […] Induction of acellularity is believed to inhibit intimal hyperplasia, the most common cause of restenosis in post-angioplasty patients.
FIG. 1 is a low magnification image of a tissue cross section taken from the throat of a rat that has received PDT therapy using intravascular red light. […] (A bare fiber diffuser was used here since complete blood elimination is not necessary at this wavelength due to the relatively high penetration of light through blood at this wavelength.) The animal was sacrificed 4 days after the PDT treatment, the throat section was harvested, embedded and stained using hematoxylin and eosin (H&E). […] A balloon was placed around the fiber light diffuser here since it is important to eliminate blood at these wavelengths due to the optical absorption of hemoglobin. […] The animal was sacrificed 5 days after the PDT treatment, the throat section was harvested, embedded and stained using hematoxylin and eosin (H&E). […] In fact, it is widely believed that viable smooth muscle cells in the media and adventia are the source of the proliferating cells that are responsible for restenosis.
In FIG. 9, the results are listed in the columns titled Max. Accell., listing the acellularity measured in the section for which the acellularity was highest and Sur. Tissue Damage, listing the degree of surrounding tissue damage. […] The desired objective was to achieve significant acellularity with minimal damage to surrounding tissue.

coronary artery = experiment: Intravascular PDT treatment of swine coronary artery, heart harvested after treatment; type: in vivo
[1] = Optical absorption spectrum of MV6401; type: physicochemical; settings: near 458 nm and 532 nm (FIG. 8)
[2] = Uptake of the drug within the target tissues by fluorescence microscopy and HPLC; type: in vivo; settings: rat, systemic administration
Experimental: Prior to this surgery, the rats were injected with a photosensitizer drug to allow uptake of the drug into the target tissues. Uptake of the drug within the target tissues was confirmed by fluorescence microscopy and high pressure liquid chromatography (HPLC). […] Induction of acellularity is believed to inhibit intimal hyperplasia, the most common cause of restenosis in post-angioplasty patients. […] To our knowledge, such efficacy using intravascular light has never been achieved previously with PDT. […] This was notable since the target tissues appeared to contain a higher drug concentration and they were also located closest to the light source.

[3] = rat carotid, intravascular light at wavelengths within the disclosed 390-610 nm range
[4] = intravascular red light, high PDT doses
[5] = rat carotid, approximately 2 hours after drug injection (FIG. 15)
[6] = rat carotid, approximately 4 hours after drug injection (FIG. 14)

**Q.** What does the source list for `O=C([O-])c1c(Cl)c(Cl)c(Cl)c(Cl)c1-c1c2cc(I)c(=O)c(I)c-2oc2c(I)c([O-])c(I)cc12.[Na+].[Na+]` [Rose Bengal]?
**A.** Acellularity in the medial wall (rat carotid artery; [3]): acellularity was induced in the medial wall; PDT effect / damage in surrounding tissue (rat carotid artery; [3]): largely sparing the surrounding tissue

**Q.** For `C=Cc1c(C)c2[n]3c1=CC1=NC(=Cc4c(C)c5c([n]4[In]3[Cl])C(=C3N=C(C=2)[C@@H](C)[C@@H]3CCC(=O)OC)CC5=O)C(CC)=C1C` [MV6401], which “Acellularity within the vessel media and adventia” value (coronary artery; blue (458 nm) or green (532 nm) intravascular light, surrounding tissue damage of the order of FIG. 6 and 7) is on record?
**A.** complete acellularity can be achieved within the vessel media and adventia

**Q.** What about the “PDT-induced damage to myocardium / surrounding tissue” value (coronary artery; intravascular blue light (458 nm) (FIG. 6)) of the same compound?
**A.** minimal damage to the myocardium

**Q.** And the “PDT-induced damage to myocardium / surrounding tissue” value (coronary artery; intravascular green light (532 nm) (FIG. 7))?
**A.** minimal damage to the myocardium

**Q.** What about the “Acellularity in media or adventia of the vessel” value (coronary artery; [4]) of the same compound?
**A.** insignificant acellularity was induced in the media or adventia of the vessel

**Q.** And the Clinical reactions (coronary artery; [4])?
**A.** severe adverse clinical reactions

**Q.** What about the “Absorption (molar extinction coefficient)” value [1] of the same compound?
**A.** > 1000 L cm^−1 M^−1

**Q.** What about the “Clinical evidence of adverse PDT treatment effect” value (rat carotid artery; [3]) of the same compound?
**A.** no clinical evidence of an adverse PDT treatment effect

**Q.** What about the “Acellularity in the medial wall” value (rat carotid artery; [3]) of the same compound?
**A.** acellularity was induced within the medial wall; also recorded: acellularity was induced in the medial wall

**Q.** And the “PDT effect / damage in surrounding tissue” value (from here on “PDT effect / damage”) (rat carotid artery; [3])?
**A.** very minimal PDT effect in the surrounding tissue; also recorded: largely sparing the surrounding tissue

**Q.** What about the “PDT treatment effect in the target tissue (histology)” value (rat carotid artery; rat carotid, intravascular red/infrared light) of the same compound?
**A.** little or no PDT treatment effects in the target tissue

**Q.** What about the Clinical symptoms (rat carotid artery; rat, 2 μmol/kg systemic, 458 nm, 100 J/cm^2, light 4 hours post drug (FIG. 3)) of the same compound?
**A.** no adverse clinical symptoms

**Q.** And the “Acellularity in the vessel wall” value (rat carotid artery; rat, 2 μmol/kg systemic, 458 nm, 100 J/cm^2, light 4 hours post drug (FIG. 4))?
**A.** complete acellularity was induced in the vessel wall

**Q.** What about the “Surrounding tissue damage (inflammation and necrosis, H&E)” value (rat carotid artery; rat, 2 μmol/kg systemic, 458 nm, 100 J/cm^2, light 4 hours post drug, balloon device, sacrificed 5 days after PDT (FIG. 3)) of the same compound?
**A.** minimal PDT-induced inflammation and necrosis

**Q.** What about the “Localization / uptake of photosensitizer in target tissue versus surrounding tissue” value [2] of the same compound?
**A.** more strongly localized in the target tissue; also recorded: taken up preferentially in the target vessel tissue

**Q.** With benzoporphyrin derivative [BPD] as the compound, how does the “Adverse symptoms in animals” value (rat carotid artery; [5]) read?
**A.** no animals displayed adverse symptoms

**Q.** And the “PDT-induced damage in surrounding tissue (histology)” value (rat carotid artery; [5])?
**A.** minimal evidence of PDT-induced damage in surrounding tissue

**Q.** What about the “Acellularity within the media (H&E)” value (rat carotid artery; rat carotid, approximately 2 hours after drug injection, 3 days after PDT (FIG. 15)) of the same compound?
**A.** nearly complete acellularity within the media

**Q.** What about the “Acellularity in the medial wall” value (rat carotid artery; [3]) of the same compound?
**A.** acellularity was induced in the medial wall

**Q.** What about the “PDT effect / damage” value (rat carotid artery; [3]) of the same compound?
**A.** largely sparing the surrounding tissue

**Q.** With `CC(=O)[O-].CC(=O)[O-].CCc1c(CC)c2cc3nc(cnc4cc(OCCOCCOCCOC)c(OCCOCCOCCOC)cc4ncc4nc(cc1[n-]2)C(CCCO)=C4C)C(C)=C3CCCO.O.[Lu+3]` [LuTex, lutetium texaphyrin] as the compound, how does the “Adverse symptoms in animals” value (rat carotid artery; [6]) read?
**A.** no animals displayed adverse symptoms

**Q.** And the “PDT-induced damage in surrounding tissue (histology)” value (rat carotid artery; [6])?
**A.** minimal evidence of PDT-induced damage in surrounding tissue

**Q.** And the “Acellularity within the media (H&E)” value (rat carotid artery; rat carotid, approximately 4 hours after drug injection, 3 days after PDT (FIG. 14))?
**A.** nearly complete acellularity within the media

**Q.** And the “Acellularity in the medial wall” value (rat carotid artery; [3])?
**A.** acellularity was induced in the medial wall

**Q.** What about the “PDT effect / damage” value (rat carotid artery; [3]) of the same compound?
**A.** largely sparing the surrounding tissue
